Values of other authors, collected in patent US20040142860A1, “Central nervous system-derived immune privilege factor and uses thereof” (Yeda Research and Development Co. Ltd., priority 1996, published 2004).

Test system: ganglion cell degradation in the retina
Conditions: single or repeated injections into the vitreous body

For Threonine-Lysine-Proline [TKP], the “effect on axotomy-induced ganglion cell degradation in the retina” value is listed as “retardation of axotomy-induced ganglion cell degradation in the retina”.
